Source: patent US20200038410A1, “METHODS FOR TREATING NEUROPATHY” (Loyola University Chicago, priority 2018, published 2020)

Tests used:
[1] = system: DRG of WD-fed mice; experiment: ER stress marker (UPR target gene) mRNA in DRG of WD-fed mice treated with agonist; type: in vivo; details: 25 mg/kg i.p. twice a week for three weeks, FIG. 2D
Description: End point levels of serum triglycerides (FIG. 2B), cholesterol (FIG. 2C), in mice fed NC or WD treated with agonist. FIG. 2D represents mRNA levels of ER stress markers normalized to 18S in DRG of NC or WD-fed mice treated with LXR agonist. (n=4 mice/group; all values are Mean±S.E.M; for mRNA relative levels were plotted with NC-vehicle group defined as 100%; *p<0.05 with NC-Veh; **p<0.05 with WD-Veh). The above data linking LXR and ER stress in DRG led the inventors to assess whether activation of LXRs could change the WD-induced allodynia. WT mice were fed either NC or WD for a total of twelve weeks after weaning, while assessing the onset and progression of allodynia. […] Weight-matched mice on either diet were treated for three weeks with either GW3965 (25 mg/kg body weight; twice a week by i.p.) or vehicle after eight weeks of WD diet (twelve weeks of age). As activation of LXRs elevated triglyceride levels in liver and plasma, the dosage of LXR agonist was adjusted to minimize the increase of triglyceride and cholesterol (FIGS. 2B and 2C). Sensitivity of mice to innocuous stimuli was evaluated over the duration of GW3965 treatment. […] Then, the expression of UPR target genes in DRG of NC- or WD-fed mice treated with vehicle or GW3965 was compared.

[2] = system: 80-week old mice presenting signs of neuropathy; experiment: Intra epidermal nerve fibers density in paw skin of 80-week old mice with neuropathy; type: in vivo; details: gavaged twice a week for three months, skin of paws, FIG. 6
Description: FIG. 6 is a bar chart evidencing that treatments with a mixed solution of butyrate and an LXR agonist (GW3965) trigger an enhanced regeneration mechanism that improves neuropathy.
In an additional investigation, 80-week old mice presenting signs of neuropathy (loss of fibers in the skin) were gavaged twice a week during a three-month period with a GW3965 solution or a mixed solution of GW3965 and butyrate using the indicated concentrations reported in FIG. 6. After three months, the mice were euthanized and the intra epidermal nerve fibers density was counted in the skin of their paws.

[3] = system: LXRs in organotypic cultures of DRG; experiment: LXR target gene expression (ABCA1) in organotypic cultures of DRG; type: cell-based, mice; details: organotypic cultures of DRG stimulated with GW3965; FIG. 1B
Description: FIG. 1A is a chart representing distribution of nuclear receptor mRNA in the whole DRG. Normalized mRNA expression levels were defined as Absent if the Ct value was greater than 40, Low if the level was […] arbitrary units, Moderate if the level was between 0.025 and 0.25, and High if the level was greater than 0.25 arbitrary units. […] FIGS. 1D and 1F represent data of protein levels of CHOP, an ER stress marker, in DRG of mice fed western diet (WD) compared to normal chow (NC) (FIG. 1D, n=10 DRG/group), and in ex vivo organotypic whole DRG cultures treated with palmitate and LXR agonist (FIG. 1F, n=individual experiments in triplicate). FIGS. 1C, 1E, and 1G represent data of mRNA levels of ER stress markers using 18S to normalize, in DRG of WD and NC fed mice (FIG. 1C, n=4 mice/group), in organotypic whole DRG cultures (FIG. 1E), and in primary neuronal culture of DRG neurons treated with LXR agonist and palmitate (FIG. 1G, n=5 individual experiments). (All values are Mean±S.E.M, with vehicle group defined as 100%; *p<0.05 with vehicle; **p<0.05 with vehicle+palmitate). […]

[4] = system: organotypic DRG cultures; experiment: Palmitate-induced ER stress markers (mRNA) in organotypic whole DRG cultures; type: cell-based, mice; details: palmitate treated organotypic DRG cultures, compared to vehicle; FIG. 1E
Description: (§1) FIG. 1A is a chart representing distribution of nuclear receptor mRNA in the whole DRG. Normalized mRNA expression levels were defined as Absent if the Ct value was greater than 40, Low if the level was […] arbitrary units, Moderate if the level was between 0.025 and 0.25, and High if the level was greater than 0.25 arbitrary units. […] FIGS. 1D and 1F represent data of protein levels of CHOP, an ER stress marker, in DRG of mice fed western diet (WD) compared to normal chow (NC) (FIG. 1D, n=10 DRG/group), and in ex vivo organotypic whole DRG cultures treated with palmitate and LXR agonist (FIG. 1F, n=individual experiments in triplicate). FIGS. 1C, 1E, and 1G represent data of mRNA levels of ER stress markers using 18S to normalize, in DRG of WD and NC fed mice (FIG. 1C, n=4 mice/group), in organotypic whole DRG cultures (FIG. 1E), and in primary neuronal culture of DRG neurons treated with LXR agonist and palmitate (FIG. 1G, n=5 individual experiments). (All values are Mean±S.E.M, with vehicle group defined as 100%; *p<0.05 with vehicle; **p<0.05 with vehicle+palmitate).
ER stress has been identified as a potential culprit underlying type 1 and type 2 diabetes. Increased expression of the ER stress marker CHOP was reported in metabolic tissues of diabetic mice, while targeted disruption of CHOP gene delayed the onset of diabetes. […]

[5] = system: DRG primary neuronal cultures; experiment: Palmitate-induced ER stress markers and lpcat3 mRNA in DRG primary neuronal cultures; type: cell-based, mice; details: DRG neurons stimulated by LXR agonist; FIG. 1G
Description: as §1
Previous research has shown that LXRs could be involved in the regulation of organelles/membrane phospholipid composition by regulating the expression of LPCAT3 (lysophospholipid acyltransferase).

[6] = system: WD-fed mice; experiment: Western diet-induced allodynia, von Frey test; type: in vivo; details: 25 mg/kg i.p. twice a week for three weeks after eight weeks of WD, compared to WD vehicle, FIG. 2A
Description: End point levels of serum triglycerides (FIG. 2B), cholesterol (FIG. 2C), in mice fed NC or WD treated with agonist. FIG. 2D represents mRNA levels of ER stress markers normalized to 18S in DRG of NC or WD-fed mice treated with LXR agonist. (n=4 mice/group; all values are Mean±S.E.M; for mRNA relative levels were plotted with NC-vehicle group defined as 100%; *p<0.05 with NC-Veh; **p<0.05 with WD-Veh). The mechanical hypersensitivity observed early in peripheral neuropathy is believed to be associated with metabolic syndrome and independent of diabetes. […] The von Frey test was performed and measured phasic response frequency to calculate the 50% threshold in WD and NC-fed mice. […] The above data linking LXR and ER stress in DRG led the inventors to assess whether activation of LXRs could change the WD-induced allodynia. WT mice were fed either NC or WD for a total of twelve weeks after weaning, while assessing the onset and progression of allodynia. […] Weight-matched mice on either diet were treated for three weeks with either GW3965 (25 mg/kg body weight; twice a week by i.p.) or vehicle after eight weeks of WD diet (twelve weeks of age). […] Sensitivity of mice to innocuous stimuli was evaluated over the duration of GW3965 treatment. […]

[7] = system: Nav1.8 expressing neurons of the DRG; experiment: ER stress marker mRNA in Nav1.8 expressing sensory neurons (RiboTag IP) of DRG organotypic cultures treated with palmitate; type: cell-based, mice; details: Nav1.8 sensory neuron specific mRNA from DRG organotypic cultures, FIG. 3F
Description: FIGS. 3A through 3F include charts and images representing that an LXR agonist decreased lipid-induced ER stress in DRG neurons expressing Nav1.8. […] FIG. 3B represents the generation of tissue specific RiboTag mouse. Sensory neuron specific (Nav1.8) Cre mice were utilized to generate Ribotag-Nav1.8-Cre mice. FIG. 3C represents data from western blots on whole DRG of RiboTag-Nav1.8-Cre mice after immunoprecipitation for HA. FIG. 3D represents data from immunohistochemistry on DRG slices for HA in sensory neurons (in green—HA, blue—DAPI/nuclei). FIG. 3E represents actin normalized mRNA levels of positive (Nav1.8) and negative (GFAP, PV) markers of Nav1.8 expressing neurons in whole DRG (WT), input, and IP samples. FIG. 3F represents actin normalized mRNA levels of ER stress markers, in sensory neurons treated with LXR agonist and palmitate. Sensory neuron specific mRNA was isolated by immunoprecipitation from whole DRG organotypic cultures treated with agonist and palmitate (n=3 individual experiments). (Values are Mean±S.E.M, with vehicle group defined as 100%; *p<0.05 with vehicle; **p<0.05 with vehicle+palmitate). […] The mRNA levels of ER stress markers undergoing translation were analyzed in Nav1.8 expressing neurons. […]

## O=C(O)Cc1cccc(OCCCN(Cc2cccc(C(F)(F)F)c2Cl)CC(c2ccccc2)c2ccccc2)c1 [GW3965]
[1]
  expression of ER stress markers in DRG: decreased expression of ER stress markers
[2]
  number of nerves (intra epidermal nerve fibers density): increased the number the nerves
[3]
  LXR canonical gene expression, ATP-binding cassette transporter (ABCA1): significant increase
[4]
  mRNA levels of ER stress markers: decreased
[5]
  lpcat3 mRNA: significant increase
[6]
  progression of WD-induced allodynia (von Frey sensitivity to innocuous stimuli): delay in the progression of WD-induced allodynia
[7]
  CHOP, ATF4, and sXBP1 mRNA levels increased by palmitate: blunted
